# Laboratory results reported in PubChem BioAssay AID2305 (GlaxoSmithKline (GSK), 2010).
# Tested on: P. falciparum 3D7 growth, pLDH absorbance
# Assay: blood-stage malaria parasite growth potency – strain 3D7, dose response (AID 2305)
row,SMILES,IC50 [nM]
1,Cc1cc(=O)c(C2CCC(c3ccc(Cl)cc3)CC2)c(C)[nH]1 (stereo not drawn),740
2,CC(C)N1CCC(NC(=O)N2CCCN(c3ncnc4cc(-c5ccccc5)sc34)CC2)CC1,860
3,COc1ccc(C(=O)COc2cccc(/C=C/C(=O)O)c2)cc1OC,1320
4,CCc1ccc(CN2CCC(C(=O)Nc3ccc(-c4nc5ccccc5[nH]4)cc3)CC2)o1,610
5,COc1ccc(O)cc1/C=N/Nc1ccnc2cc(Cl)ccc12,540
6,COc1cc2c(cc1C(F)(F)F)N(C(=O)Nc1cc(OC(F)(F)F)cc(-c3cccnc3)c1)CC2,40
7,CC(=O)Nc1ccc(C(=O)Nc2cccc(-c3ccc(-c4nc5ccc(F)cc5[nH]4)cc3)c2)cn1,170
8,CN(CCc1ccccn1)Cc1ccc(-c2ccc(-c3nc4ccccc4[nH]3)s2)cc1,590
9,CC(=O)c1cccc(S(=O)(=O)NCCCNc2nc3cc(C)cc(C)c3cc2C#N)c1,910
10,Oc1ccc(Cl)cc1CN1CCC(CCOC(c2ccccc2)c2ccc(Cl)cc2)CC1 (stereo not drawn),390
11,O=C(c1ccc(Cl)cc1)C1CCCN(C2CCN(CCc3ccccc3)CC2)C1 (stereo not drawn),1450
12,Cc1cccc(CN2CCC(C(=O)Nc3ccc(-c4nc5ccccc5[nH]4)cc3)CC2)n1,920
13,CN(CCNCc1ccc(-c2cccc(-c3nc4ccccc4[nH]3)c2)cc1)S(C)(=O)=O,950
14,CCCc1cc(NC2CCN(C)CC2)nc(Nc2ccc(C)cc2)n1,900
15,COc1ccc(-n2ccnc2SCC(=O)Nc2cccc(C(F)(F)F)c2)c(OC)c1,220
16,COc1cc(NC(=O)CCCN2CCN(c3cccc(Cl)c3Cl)CC2)ccc1N1CCN(C(C)C)CC1,950
17,O[C@@H](c1ccccc1)[C@@H]1CN(CCc2ccccc2)CC[C@@]1(O)c1ccccc1,1040
18,CCC(C)(C)c1ccc(OCCCC(=O)Nc2ccc(Cl)c([N+](=O)[O-])c2)c(C(C)(C)CC)c1,970
19,Cc1ccccc1OCC(O)CNC1CCC(NCC(O)COc2ccccc2C)CC1 (stereo not drawn),1190
20,Cc1csc(NC(=O)c2cn(-c3ccccc3)nc2-c2cccs2)n1,910
21,COc1cc2nc(N3CCC(CNC(=O)c4ccc(-c5ccc(-c6noc(C)n6)cc5)cc4)CC3)nc(N)c2cc1OC,140
22,Cc1ccnc(Nc2nc(-c3ccccn3)cs2)c1,1000
23,COc1cc(F)c2ncc(Cl)c(CCN3CCC(NCc4ccc5c(n4)NC(=O)CS5)CC3)c2c1,480
24,CCN(CC)CCCN(C(=O)Nc1c(Cl)cncc1Cl)c1nc(-c2ccc(F)cc2)cs1,240
25,CCOC(=O)C(C)(C)Oc1ccc(C(=C2CC(C)(C)CC(C)(C)C2)c2ccc(O)cc2)cc1,1130

row,SMILES,IC50 [nM]
1,O=C(CCCCCNC(=O)c1ccc(O)c(-c2ccc(Cl)c(Cl)c2)c1)NCc1cccc(C(F)(F)F)c1,730
2,CN(Cc1ccccc1)C1CCN(c2cc(NC(=O)c3cccc(F)c3)ccn2)CC1,1510
3,Cc1cccc(Nc2nc(N)c3ccccc3n2)c1,570
4,O=C(/C=C/c1ccc(Cl)c(Cl)c1)NCCCCCN1CCC(NC(=O)Nc2ccccc2F)CC1,840
5,O=c1cc(NC[C@@H]2CCC[C@@H]2NCc2ccc(Cl)c(Cl)c2)[nH]c2ccccc12,600
6,Clc1ccc(OCc2ccccc2)c(-c2nc(-c3nc4ccc(Cl)cc4[nH]3)cs2)c1,670
7,O=c1cc(NCCCNCc2cccc(OC(F)(F)F)c2)[nH]c2ccccc12,850
8,CCn1c(=O)c(C(=O)Nc2cc(Cl)c(OC)cc2OC)nc2ccccc21,240
9,O=C(NCCCN1CCOCC1)c1csc(Nc2ccc(Cl)c(Cl)c2)n1,920
10,COc1cc2nc(N3CCN(c4cc(C)ccc4C)CC3)nc(N)c2cc1OC,850
11,CCc1nc2ccc(C(=O)OC)nc2n1Cc1ccc2oc(-c3ccccc3N)c(Br)c2c1,820
12,Clc1ccc(OC2CCC(Cn3ccnc3)(c3ccc(Cl)cc3Cl)CC2)c(Cl)c1 (stereo not drawn),800
13,O=C(NC1CCN(CC2(c3ccc(Cl)cc3)CCC2)CC1)c1ccn[nH]1,420
14,C[C@@H](CC1CCCCC1)OC(=O)N(C)[C@@H]1CCN(C#N)C1,620
15,CCc1cc(C(=O)c2cccc(C)c2)c(NC(=O)CN2CCN(C(=O)c3ccco3)CC2)s1,450
16,O=C(Nc1ccc([N+](=O)[O-])cc1Cl)c1cc2ccccc2cc1O,1010
17,CC(C)c1ccc(NS(=O)(=O)c2cccc(C(=O)NC3CCN(CC4CCCCC4)CC3)c2)cc1,1300
18,c1csc(-c2ccc3c(c2)CC(NCc2c[nH]c4cnccc24)C3)c1 (stereo not drawn),740
19,CC[C@H](C)CNCc1ccc(OCc2cccc(COc3ccc(CNC[C@@H](C)CC)cc3I)c2)c(I)c1,400
20,O=C(Nc1cccc(CN2CCCN(Cc3cccc(O)c3)CC2)c1)c1cc2ccccc2s1,360
21,Cc1cnc(CCNC(=O)c2cc(-c3ccc(Cl)cc3)cs2)[nH]1,240
22,O=C(N[C@@H](Cc1ccccc1)C(=O)NCCN1CCCC1)c1ccc(O)c(-c2ccc(Cl)c(Cl)c2)c1,800
23,O=c1cc(NCCCNC2CCOc3c(Cl)cc(Cl)cc32)[nH]c2ccccc12 (stereo not drawn),720
24,CC(CN(C)C)C(=O)Nc1cccc(-c2cccc(-c3nc4ccccc4[nH]3)c2)c1 (stereo not drawn),1060
25,CCN(CC)c1ccc(C(=O)Cn2ccc(=N)cc2)cc1,1000

row,SMILES,IC50 [nM]
1,COc1ccc2c(c1)CC(C)(C)NC2CCCCCCCCC1NC(C)(C)Cc2cc(OC)ccc21 (stereo not drawn),1300
2,FC(F)(F)c1cccc(C=NNc2nc3ccccc3[nH]2)c1,150
3,O=C(Nc1ccc([N+](=O)[O-])cc1Cl)c1cc(Br)cc(Cc2ccccc2)c1O,1290
4,Cc1ccc(Nc2nc(C)cc(Nc3cccc(C#N)c3)n2)cc1,980
5,NS(=O)(=O)CCc1cccc(Nc2nccc(-c3c(-c4cccc(NC(=O)c5c(F)cccc5F)c4)nn4ccccc34)n2)c1,60
6,ON=C1CCc2cc(-c3nc(-c4cccc(OCCNCc5ccc(F)cc5)c4)[nH]c3-c3ccncc3)ccc21,890
7,CN1CCCC(CN2CCN(Cc3cccc(-c4ccc(-c5nc6ccccc6[nH]5)cc4)c3)CC2)C1 (stereo not drawn),160
8,CCCCCCCN1CC[C@@H](CCCc2ccnc3ccc(OCCCCN=C(N)NO)cc23)[C@@H](CC)C1,950
9,Clc1ccc2nccc(N3CCC(CN4CCC(c5c[nH]c6ccccc56)CC4)CC3)c2c1,30
10,COc1ccc(N(c2nc(-c3cc(Cl)ccc3Cl)cs2)C2CCNCC2)cc1,1090
11,CCOc1ccc(C2CCN(CCCCNC(=O)c3ccc(NC(=O)c4ccc(Cl)cc4)cc3)CC2)c(Cl)c1,730
12,CN1CCN(c2nsc3ccc(-c4ccc(OCCN5CCCC5)cc4)cc23)CC1,830
13,C[C@@H](Oc1cc(-n2cnc3ccc(NC(=O)CCN4CCCCC4)cc32)sc1C(N)=O)c1ccccc1Cl,990
14,COc1ccc(CNCc2ccsc2)cc1-c1ccc(OC)c(S(=O)(=O)NCCN2CCCC2)c1,920
15,Cc1[nH]cnc1CSCCNC(N)=NCCCCCCCCN=C(N)NCCSCc1nc[nH]c1C,270
16,O=C(Nc1ccccc1)Nc1cccc(-c2nn3c(OCC4CCCCN4)cccc3c2-c2ccncc2)c1 (stereo not drawn),860
17,COc1ccc(-c2cccc(NC(=O)c3cccc(C#N)c3)c2)cc1CN(C)CCN(C)C,310
18,O=C(Nc1ccc2c(ccn2C2CCCN(Cc3cc(F)cc(F)c3F)CC2)c1)c1ccco1 (stereo not drawn),650
19,CCc1cc(NC2CCN(C)CC2)nc(Nc2cccc(OC)c2)n1,860
20,N[C@@H](CCNC1CCN(c2cccc(C(F)(F)F)c2)CC1)Cc1ccc(F)c(F)c1,1290
21,CCC(C)NCCC(c1ccccc1)c1ccccc1O (stereo not drawn),790
22,CN1CCC(NCCS(=O)(=O)c2cccc(Nc3ccc(-c4cccc(F)c4)cn3)c2)CC1,1360
23,CCOC(=O)c1ccc(N2CCN(c3cc(C)ccc3C)CC2)c(NC(=O)Nc2ccc(Cl)c(Cl)c2)c1,710
24,O=C(Nc1cccc(-c2ccc(-c3nc4ccc(F)cc4[nH]3)s2)c1)c1ccncc1,700
25,COc1cc2nc(N3CCN(c4nc(N)c5cc(OC)c(OC)cc5n4)CC3)nc(N)c2cc1OC,150

row,SMILES,IC50 [nM]
1,Cc1cccc2[nH]c(-c3ccc(-c4ccc(NC(=O)Nc5ccc(F)c(F)c5F)cc4)cc3)nc12,270
2,COc1cc2c(cc1C(F)(F)F)N(C(=O)Nc1cc(F)cc(-c3cccnn3)c1)CC2,270
3,Cc1nc(N=C(N)N)nc2cc3c(cc12)CCC3,920
4,O=C(Cn1c(CCc2cccc(F)c2F)nc(=O)c2ccccc21)N(CCN1CCCC1)Cc1ccc(-c2ccc(C(F)(F)F)cc2)cc1,710
5,O=C(Nc1ccc(Cl)cc1)OCCn1nnnc1C(c1ccc(Cl)cc1)N1CCOCC1 (stereo not drawn),1180
6,CC(C)(CNC(=O)[C@H]1CCCCN1)c1nc(-c2ccc(Cl)c(O)c2)c(-c2ccncc2)[nH]1,730
7,Cc1cccc(C(=O)N2CCN(Cc3cccc(NC(=O)c4cccs4)c3)CC2)c1,220
8,Cc1[nH]c2ccc(NS(C)(=O)=O)cc2c1C1CCN(CCC2CCN(C(=O)/C=C/c3ccc(Cl)c(Cl)c3)CC2)CC1,840
9,O=C(Nc1ccc(OC2CCN(Cc3ccc(F)cc3)C2)c(Cl)c1)c1ccc(F)cc1 (stereo not drawn),490
10,O=C(NCc1ccc(C(=O)NCc2cccc3ccccc23)cc1)c1ccc(O)c(-c2ccc(Cl)c(Cl)c2)c1,810
11,COc1ccc(-c2onc(C(F)(F)F)c2-c2ccc(Br)cc2)c(O)c1,240
12,COc1ccc(CNC2CCN(C)CC2)cc1-c1ccc(S(=O)(=O)NCc2ccccc2)cc1,600
13,Cc1cc(-c2nc3ccc(N4CCN(C)CC4)cc3[nH]2)nn1Cc1cc(Cl)ccc1OCC(C)C,880
14,O=C(Nc1cccc(C(F)(F)F)c1)Nc1ccc(Cl)c(Cl)c1,740
15,COc1cc(N(Cc2ccc(F)cc2)C(=O)c2ccc(-c3ccccc3)cc2)ccc1OCCN1CCCC1,830
16,Cc1cc(C(=O)Nc2ccc3c(ccn3C3CCCN(Cc4ccc(C(F)(F)F)cc4F)CC3)c2)no1 (stereo not drawn),760
17,CC1(C)N=C(N)N=C(N)N1c1ccc(I)cc1,40
18,Cc1cccc2[nH]c(-c3cccc(-c4cccc(CNCCCN5CCCC5=O)c4)c3)nc12,740
19,CC(Nc1ccc2c(c1)CCC2)C(=O)Nc1cc(C(F)(F)F)ccc1N1CCOCC1 (stereo not drawn),90
20,Nc1nc(N)c2c(ccc3c2ccn3Cc2ccccn2)n1,10
21,CC(Cc1ccc(CNC(=O)NCc2ccc(CC(C)NCCc3cccc(Cl)c3)cc2)cc1)NCCc1cccc(Cl)c1 (stereo not drawn),690
22,O=C(Cn1c2ccccc2c(=O)c2ccc(Cl)cc21)Nc1ccc(C(F)(F)F)cc1,530
23,CC1(C)N=C(NC(=O)c2ccc([N+](=O)[O-])cc2)N=C(N)N1OCc1ccc2ccccc2c1,10
